Measured values as given in PMC12869404 (Virology, 2020).
Where no end group is shown, it is not given here.

What was measured:
[1] = system: glycan-specific, HIV-1 gp120 NAb, 2G12; test: M13 Binding ELISA, assay control NAb 2G12; conditions: control NAb 2G12 coated 1 μg/well; > 2.5E+9 = no binding
HIV-1 PSVs = test: TZMbl neutralization assay of immunized mouse sera; conditions: animals immunized with mimotopes alone; TZMbl and PBMC assays, Fig. 5

| Substance | Binding Titer (M13/ml) 2G12 [1] | neutralizing responses of sera (HIV-1 PSVs) |
| --- | --- | --- |
| MELDKWA (disulfide (positions not given here)) [2F5 PhD c7c-1] | > 2.5E+9 M13/ml |  |
| NWFDRSHTLFHS [4E10 PhD 12–3] | > 2.5E+9 M13/ml |  |
| QSYNWFDHTRWI [4E10 PhD 12–8] | > 2.5E+9 M13/ml |  |
| SEELDKWYNTLT [2F5 PhD 12–3] | > 2.5E+9 M13/ml |  |
| TLDIFRN (disulfide (positions not given here)) [4E10 PhD c7c-3] | > 2.5E+9 M13/ml |  |
| PFGFELW (disulfide (positions not given here)) [Z13 PhD c7c-2] | > 2.5E+9 M13/ml |  |
| LPNWFNLSSNLM [4E10 PhD 12–11] | > 2.5E+9 M13/ml | detectable, low titer neutralizing responses |
| TNFFELTTKLHR [4E10 PhD 12–10] | > 2.5E+9 M13/ml |  |
| SIFDWPR (disulfide (positions not given here)) [4E10 PhD c7c-1] | > 2.5E+9 M13/ml |  |
| NFWELSKYLHMA [4E10 PhD 12–9] | > 2.5E+9 M13/ml |  |
| YFFDRSS (disulfide) [4E10 PhD c7c-4] | > 2.5E+9 M13/ml |  |
| QHWNYFDLSEQQ [Z13 PhD 12–2] | > 2.5E+9 M13/ml |  |
| GPILANYSDITN [Z13 PhD 12–3] | > 2.5E+9 M13/ml |  |
| ALCLGPR (disulfide (positions not given here)) [Z13 PhD c7c-1] | > 2.5E+9 M13/ml |  |
| SHTLNFLDLTST [Z13 PhD 12–1] | > 2.5E+9 M13/ml |  |
| DMRSIFHDNPFN [4E10 PhD 12–6] | > 2.5E+9 M13/ml |  |
| GYWSDYWGMTTH [4E10 PhD 12–7] | > 2.5E+9 M13/ml | detectable, low titer neutralizing responses |
| SVSVGMKPSPRP [4E10 PhD 12–2] | > 2.5E+9 M13/ml |  |
| HNSQNLDRWAII [2F5 PhD 12–1] | > 2.5E+9 M13/ml |  |
| NWFDGTTTLWHR [4E10 PhD 12–4] | > 2.5E+9 M13/ml |  |
| ERMLFEW (disulfide (positions not given here)) [4E10 PhD c7c-2] | > 2.5E+9 M13/ml |  |
| DKWASFD (disulfide (positions not given here)) [2F5 PhD c7c-2] | > 2.5E+9 M13/ml |  |
| SEMDDKWAKMKI [2F5 PhD 12–2] | > 2.5E+9 M13/ml |  |
| NWFNLTQTLMPR [4E10 PhD 12–1] | > 2.5E+9 M13/ml |  |
